Test results published in patent publication US20080300298A1, “Honokiol Derivates For the Treatment of Proliferative Disorders” (priority 2005, published 2008).

Tests used:
[1] = test system: microvascular endothelial cells; test: endothelial proliferation with TRAIL antibody; assay type: cell-based; conditions: 0, 1, 6 or 9 μg/ml, 48 h
Description: 10^4/well microvascular endothelial cells were cultured in 24-well plates for 24 h. The next day, cells were washed by PBS and pretreated with 0.5 ml/well fresh MEC medium with 0, 1, 6, or 9 μg/ml honokiol for 30 min before addition of TRAIL or isotype control antibody (30 μg/well). Cells were incubated for 48 h after the addition of reagents and were counted with a Coulter Counter. The green bars represent endothelial cells treated with honokiol alone, the dark blue bars represent cells treated with honokiol and TRAIL antibody, and the light blue bars represent cells treated with honokiol and isotype control antibody. The differences in honokiol-treated endothelium in the presence or absence of TRAIL antibody are significant (p<0.05).

heart AMPKK = test: direct activation of AMPKK in vitro; assay type: biochemical
SVR angiosarcoma = test: in vivo growth of SVR angiosarcoma; conditions: nude mice
Source text: FIG. 18 depicts the effect of honokiol on in vivo growth of SVR angiosarcoma in nude mice.
FIG. 18 illustrates the effect of honokiol on in vivo growth of SVR angiosarcoma in nude mice.

KBM-5 cells = conditions: KBM-5, 72 h, with TNF, paclitaxel or doxorubicin
Description: KBM-5 cells (5000 cells/0.1 ml) were incubated at 37° C. with TNF, paclitaxel or doxorubicin in the presence and absence of 5 mM honokiol as indicated for 72 h, and the viable cells were assayed using the MTT reagent. The results are expressed as mean cytotoxicity ±SD from triplicate cultures.
Cytotoxicity assay Cytotoxicity was assayed by the modified tetrazolium salt 3-(4-5-dimethylthilozol-2-yl)-2-5-diphenyl-tetrazolium bromide (MTT) assay as described previously (Bharti, A. C., et al. 2004 J. Biol. Chem. 279:6065-6076).
The effect of honokiol on TNF and chemotherapeutic agent-induced apoptosis was examined by the MTT assay.

IkBa and p65 = test: Western blot / immunocytochemistry of TNF-induced IkBa and p65 events; assay type: cell-based, human
Description: Honokiol inhibits TNF-induced activation of NF-kB. H1299 cells were incubated with […] honokiol for 12 h, treated with 0.1 nM TNF for the indicated times, and then analyzed for NF-kB activation by EMSA. (B) H1299 cells (2×10^6/ml) were incubated with […] honokiol for 12 h at 37° C., treated with 0.1 nM TNF for the indicated times at 37° C., and then tested for IkBa (upper panel) in cytosolic fractions by Western blot analysis. Equal protein loading was evaluated by b-actin (lower panel). (C) Honokiol blocks the phosphorylation and ubiquitination (D) of IkBaby TNF. Cells were preincubated with […] honokiol for 12 h, incubated with […]/ml N-acetyl-leucyl-leucyl-norleucinal (ALLN) for 30 min, and then treated with 0.1 nM TNF for 10 min. Cytoplasmic extracts were fractionated and then subjected to Western blot analysis using phospho-specific anti-IkBa antibody. The same membrane was reblotted with anti-IkBa antibody. (E) Honokiol inhibits TNF-induced IkBakinase activity. H1299 cells (2×10^6/ml) were treated with […] honokiol for 12 h and then treated with 0.1 nM TNF for the indicated time intervals. Whole-cell extracts were prepared, and 200 mg of extract was immunoprecipitated with antibodies against IKKa and IKKb. The immune complex kinase assay was then performed as described in Materials and Methods. To examine the effect of honokiol on the level of expression of IKK proteins, 30 mg of whole-cell extract was analyzed on 10% SDS-PAGE, electrotransferred, and immunoblotted with the indicated antibodies as described in Materials and Methods. (F) Honokiol inhibits TNF-induced nuclear translocation of p65. H1299 cells (2×10^6/ml) were either untreated or pretreated with […] honokiol for 12 h at 37° C. and then treated with 0.1 nM TNF for the indicated times. Nuclear extracts were prepared and analyzed by Western blotting using antibodies against p65. (G) honokiol inhibits TNF-induced nuclear translocation of p65. H1299 cells (1×10^6/ml) were first treated with […] honokiol for 12 h at 37° C. and then exposed to 0.1 nM TNF. After cytospin, immunocytochemical analysis was performed as described in Materials and Methods. […] (H) Honokiol inhibits TNF-induced phosphorylation of p65. H1299 cells (2×10^6/ml) were incubated with 25 mM honokiol for 12 h and then treated with 0.1 nM TNF for the indicated times. The cytoplasmic and nuclear extracts were analyzed by Western blotting using antibodies against the phosphorylated form of p65.
Western blot analysis. […] Cytoplasmic protein […] was resolved on 10% SDS-PAGE gel, transferred to a nitrocellulose membrane, blocked with 5% non-fat milk, and probed with specific antibodies against IkBa, posphorylated IkBa, p65, and phosphorylated p65. To determine the expression of cyclin D1, COX-2, MMP-9, cIAP-1, TRAF1, Bcl-2, Bfl-1, cFLIP, and survivin in whole-cell extracts of treated cells (2×10^6 cells in 2 ml of medium), […] of protein was resolved on SDS-PAGE and probed by Western blot with specific antibodies as per the manufacturer's recommended protocol. The blots were washed, exposed to HRP-conjugated secondary antibodies for 1 h, and finally detected by ECL reagent (Amersham Pharmacia Biotechnology, Piscataway, N.J.). The bands were quantified using a Personal Densitometer Scan v1.30 using Imagequant software version 3.3 (Molecular Dynamics).
Immunolocalization of NF-kB p65. […]

NF-kB in A293 cells = test: NF-kB-dependent reporter gene (SEAP) transcription; assay type: cell-based, human; conditions: A293, 25 mM (printed) honokiol 12 h
Description: A293 cells were transiently transfected with an NF-kB-containing plasmid linked to the SEAP gene and then treated with the indicated concentrations of honokiol. After 24 h in culture with 0.1 nM TNF, cell supernatants were collected and assayed for SEAP activity. Results are expressed as fold activity over the activity of the vector control. […] A293 cells were transiently transfected with the indicated plasmids along with an NF-kB-containing plasmid linked to the SEAP gene and then left either untreated or treated with 25 mM honokiol for 12 h. Cell supernatants were assayed for secreted alkaline phosphatase activity. Results are expressed as fold activity over the activity of the vector control. Bars indicate standard deviation.
NF-kB-dependent reporter gene transcription. The effect of honokiol on TNF-induced NF-kB dependent reporter gene transcription in A293 cells was measured as previously described (Shishodia, S., et al. 2003 Cancer Res. 63:4375-4383).
To test the effect of honokiol on NF-kB-dependent gene transcription, cells were transiently transfected with the NF-kB-regulated SEAP reporter construct and then stimulated with TNF.

[2] = test system: AKT, p44/42 MAPK, and Src phosphorylation in SVR cells; test: Western blotting of phosphorylated intracellular proteins; assay type: cell-based
Source text: FIG. 14 depicts the effects of honokiol on the phosphorylation of various intracellular proteins. […] Cells were lysed and analyzed by Western blotting using antibodies specific for the phosphorylated (P-AKT, P-MAPK, and P-Src) or unphosphorylated forms of AKT and MAPK. […] Cells were lysed and analyzed by Western blotting using antibodies specific for the phosphorylated (P-Akt, P-MAPK, and P-Src) or unphosphorylated forms of Akt and MAPK.

## C=CCc1ccc(O)c(-c2ccc(O)c(CC=C)c2)c1 [HNK, Honokiol]
[1]
  inhibition of endothelial proliferation with or without TRAIL antibody: TRAIL-dependent
Heart AMPKK
  direct activation of heart AMPKK: does not directly activate heart AMPKK in vitro
SVR angiosarcoma
  in vivo growth of SVR angiosarcoma: effective against tumors in vivo
  toxicity to the host animal: nontoxic to the host animal
KBM-5 cells
  cytotoxic effects of TNF and chemotherapeutic agents (MTT): enhanced the cytotoxic effects of TNF, paclitaxel, and doxorubicin
IkBa and p65
  TNF-induced phosphorylation of p65: suppressed p65 phosphorylation almost completely
IkBa and p65; 25 mM (printed) honokiol 12 h, 0.1 nM TNF
  TNF-dependent IkBa degradation: TNF had no effect on IkBa degradation
IkBa and p65; Western blot analysis
  TNF-induced nuclear translocation of p65: suppressed nuclear translocation of the p65 subunit of NF-kB
IkBa and p65; with ALLN, 0.1 nM TNF 10 min
  TNF-induced IkBa phosphorylation: completely suppressed it
  TNF-induced IkBa ubiquitination: completely suppressed it
NF-kB in A293 cells
  SEAP expression induced by TNFR1, TRADD, TRAF2, NIK, IKKb, and p65 plasmids: suppressed SEAP expression in all cells except those transfected with p65
[2]; 2.7, 6.7 or 13.3 μg/ml, 2, 6 or 24 h
  phosphorylation of Akt, p44/42 MAPK, Src at low concentrations: inhibits phosphorylation of Akt at low concentrations but not p44/42 MAPK or Src
[2]; 20, 30, 40 or 45 μg/ml, 1 h
  phosphorylation of AKT, p44/42 MAPK, and Src: inhibits phosphorylation of AKT, p44/42 MAPK, and Src
